Experimental data: US20230172203A1, “PLANT METABOLISM PROMOTING COMPOSITIONS AND METHODS OF USE” (Panoptic Ag Solutions LLC, priority 2021, published 2023)

Tests used:
[1] = tested on: CalWonder variety pepper plant seedlings; assay: 2021 Greenhouse Bell Pepper Trial; assay type: in vivo
Text: (§1) The base formulation used in greenhouse trials was an aqueous solution of L-theanine (20% by weight). The base formulation was further diluted with water as detailed for each trial. CalWonder variety pepper plant seedlings (n=4/treatment) were planted in commercial potting soil and then were transplanted to 3-gallon pots. L-theanine treatment was applied at the equivalent of 1 pint in 100 gallons of water (125 ppm) and sprayed till runoff. Two treatment applications were made to the plants approximately 14 days apart.

[2] = tested on: Butterbaby variety squash plant seedlings; assay: 2021 Greenhouse Squash Trial; assay type: in vivo
Text: as §1, with “Butterbaby” for “CalWonder”, “squash” for “pepper”

Zinnia plants = assay: 2021 Zinnia Greenhouse Trial; assay type: in vivo
Text: as §1, with “trial. Zinna seeds (n=6/treatment)” for “trial. CalWonder variety pepper plant seedlings (n=4/treatment)”, “then” for “then were”, “transplanted into” for “transplanted to”, “Two treatments” for “Two treatment applications”

Corn seed = assay: 2020 Greenhouse Corn Seed Treatment Trial; assay type: in vivo
Experimental: (§2) The base formulation used in greenhouse trials was an aqueous solution of L-theanine (20% by weight). The base formulation was further diluted with water as detailed for each trial. Corn seed (n=9/treatment) was treated with an aqueous solution of L-theanine at a rate of 1.0 fl. oz. per hundredweight of corn seed. The seeds were planted in commercial potting soil in 1-gallon pots. The plants were grown for 21 days before they were harvested.

Soybean seed = assay: 2020 Greenhouse Soybean Seed Treatment Trial; assay type: in vivo
Experimental: as §2, with “Soybean” for “Corn”, “(n=32/treatment)” for “(n=9/treatment)”, “soybean” for “corn”

Corn plants = assay: 2021 Greenhouse Corn Trial (drench, two rates); assay type: in vivo; conditions: for Plant Biomass / Root Length: drench 50 mL per pot, harvested 21 days later
Experimental: The base formulation used in greenhouse trials was an aqueous solution of L-theanine (20% by weight). The base formulation was further diluted with water as detailed for each trial. Corn seed (n=14/treatment) was planted in commercial potting soil in 3-gallon pots. Approximately 14 days after emergence, an aqueous solution of L-theanine was applied at a rate of 0.2 mL (Treatment 2) and 0.4 mL (Treatment 3) per 1000 mL water. The resulting solutions were drenched at a rate of 50 mL per pot. The plants were grown for an additional 21 days then harvested.

Mature apple trees = assay: 2021 New York Replicated Apple Field Trial; assay type: in vivo
Experimental: Mature apple trees (n=6) were treated with a 20% aqueous L-theanine solution at 1 pint per acre with application timings at Pink Bud, Bloom, Petal Fall, and every 2 weeks from Petal Fall until harvest.

Mature cherry trees = assay: 2022 Replicated California Cherry Trial; assay type: in vivo
Experimental: Mature cherry trees (n=6) were treated with a 10% aqueous L-theanine solution at 1 pint per acre with application timings at Early Bloom, Petal Fall, and Early Fruit set. The trial was maintained at grower standard fertilizer and pest management throughout the course of the trial.

Almond trees = assay: 2021 Replicated California Almond Trial; assay type: in vivo
Experimental: Almond trees (n=6) were treated with a 20% aqueous solution of L-theanine at 1 pint per acre at pink bud and full bloom. Additional applications at 0.5 pint per acre soil were applied at petal fall, petal fall +3 weeks, and petal fall +6 weeks for a total of applications. The trial was maintained at grower standard fertilizer and pest management throughout the course of the trial.

tea plants = conditions: exogenous application; background statement; cited from earlier work
[3] = foliar spray 125 ppm till runoff, two applications ~14 days apart
[4] = vs untreated check, 125 ppm foliar, two applications
[5] = foliar spray 125 ppm till runoff, two treatments ~14 days apart
[6] = over the untreated check, 125 ppm foliar, two treatments
[7] = over the untreated check, seed treatment
[8] = seed treatment 1.0 fl. oz. per hundredweight of seed, harvested after 21 days
[9] = Treatment 2 (0.2 mL per 1000 mL), above the untreated check
[10] = Treatment 2: 8 fl. oz./acre (0.2 mL per 1000 mL water)
[11] = Treatment 3 (0.4 mL per 1000 mL), above the untreated check
[12] = Treatment 3: 16 fl. oz./acre (0.4 mL per 1000 mL water)
[13] = 20% aqueous solution at 1 pint per acre, Pink Bud, Bloom, Petal Fall, then every 2 weeks until harvest

SMILES: CCNC(=O)CC[C@H](N)C(=O)O [L-theanine]
- Basal Diameter [1, 3]: 5.55 a mm
- Fruit (count) [1, 3]: 5.5 a count
- Plant Height [1, 3]: 26 a in
- improvement in basal diameter [1, 4]: 1.82 mm
- improvement in basal diameter, percent [1, 4]: 48.8%
- improvement in fruit count [1, 4]: 3.0
- improvement in fruit count, percent [1, 4]: 120%
- plant productivity, flowering and fruit set (in words) ([2]; 125 ppm foliar, two applications): improved plant productivity, early flowering, and early fruit set
- Fruit/Vine (count) [2, 3]: 4.25 a count
- Vine Length [2, 3]: 55.00 a in
- increase in fruit per vine [2, 4]: 2.75 fruit
- increase in fruit per vine, percent [2, 4]: 183.3%
- increase in vine length [2, 4]: 11.25 in
- increase in vine length, percent [2, 4]: 25.7%
- Basal Diameter (Zinnia plants; [5]): 6.45 a mm
- Flower (count) (Zinnia plants; [5]): 10.17 count
- Plant Height (Zinnia plants; [5]): 35.83 a cm
- increase in basal diameter (Zinnia plants; [6]): 1.2 mm
- increase in basal diameter, percent (Zinnia plants; [6]): 22.9%
- increase in flower counts (Zinnia plants; [6]): 6.0
- increase in flower counts, percent (Zinnia plants; [6]): 143.9%
- increase in plant height (Zinnia plants; [6]): 9.66 cm
- increase in plant height, percent (Zinnia plants; [6]): 36.9%
- increase in biomass (Corn seed; [7]): 1.3 g
- increase in biomass, percent (Corn seed; [7]): 4.4%
- increase in root length (Corn seed; [7]): 69.1 cm
- increase in root length, percent (Corn seed; [7]): 7.0%
- increase in root tips (Corn seed; [7]): 883.8
- increase in root tips, percent (Corn seed; [7]): 18.5%
- Plant Biomass (Corn seed; [8]): 29.88 a g
- Root Length (Corn seed; [8]): 1049.08 a cm
- Root Tips (#) (Corn seed; [8]): 5656.2 a #
- increase in biomass (Soybean seed; [7]): 0.43 g
- increase in biomass, percent (Soybean seed; [7]): 8.0%
- increase in root length (Soybean seed; [7]): 94.4 cm
- increase in root length, percent (Soybean seed; [7]): 8.1%
- increase in root tips (Soybean seed; [7]): 763.4
- increase in root tips, percent (Soybean seed; [7]): 21.0%
- Plant Biomass (Soybean seed; [8]): 5.80 a g
- Root Length (Soybean seed; [8]): 1263.7 a cm
- Root Tips (count) (Soybean seed; [8]): 4392.0 a count
- change in biomass (Corn plants; [9]): 9.0 grams
- change in biomass, percent (Corn plants; [9]): 13.9%
- change in root length (Corn plants; [9]): −106.8
- change in root length, percent (Corn plants; [9]): −6.0%
- Plant Biomass (Corn plants; [10]): 74.0 a g
- Root Length (Corn plants; [10]): 1683.8 a cm
- change in biomass (Corn plants; [11]): 9.1 grams
- change in biomass, percent (Corn plants; [11]): 14.1%
- change in root length (Corn plants; [11]): 65.3
- change in root length, relative (in brackets) (Corn plants; [11]): 3.6
- Plant Biomass (Corn plants; [12]): 74.1 a g
- Root Length (Corn plants; [12]): 1855.9 a cm
- Defects (Mature apple trees; [13]): 114.5 a bu/acre
- Salable Yield (Mature apple trees; [13]): 837.8 a bu/acre
- Total Yield (Mature apple trees; [13]): 952.3 a bu/acre
- increase in salable yield, percent (Mature apple trees; vs untreated check): 12.5%
- number of defective fruits (in words) (Mature apple trees; vs untreated check): reduced the number of defective fruits
- increase in salable yield (Mature apple trees; vs untreated check, 1 bushel=48 lbs): 93.1 bushels/acre
- Yield (Mature cherry trees; 10% aqueous solution at 1 pint per acre, Early Bloom, Petal Fall, Early Fruit set): 70.3 a Boxes/Acre
- increase in yield (Mature cherry trees; over the untreated check): 12.8 boxes/acre
- increase in yield, percent (Mature cherry trees; over the untreated check): 22.3%
- Yield (Almond trees; 20% aqueous solution, 1 pint per acre at pink bud and full bloom, 0.5 pint per acre soil at petal fall, +3 weeks, +6 weeks): 152.2 a lbs/tree
- increase in almond yield (average) (Almond trees; vs untreated check): 15.3 lbs per tree
- increase in almond yield, percent (Almond trees; vs untreated check): 11.2%
- quality and yield of tea plants (in words) (tea plants): can improve the quality and yield of tea plants by increasing the number of usable leaves
